Measurements from patent US11939301B2, “5HT1F receptor agonists and mitochondrial biogenesis” (MUSC FOUNDATION FOR RESEARCH DEVELOPMENT, priority 2016, dated 2024).

What was measured:
[1] = tested on: RPTC; conditions: cited from earlier work; for maximal mitochondrial respiration / mitochondrial proteins (ATP synthase β, Cox1, NDUFB8): RPTC, 1-100 nM
[2] = tested on: renal proximal tubule cells; assay: In-vitro mitochondrial biogenesis dose response (FCCP-uncoupled OCR, Seahorse); format: cell-based; conditions: Oryctolagus cuniculus; rabbit renal proximal tubule cells, 24 h incubation, uncoupled OCR normalized to vehicle, Hill fit, N=4-6
Experimental: OCRs were measured using a Seahorse Bioscience analyzer (North Billerica, Mass.) before (basal) and after addition of […] FCCP, an ionophore that uncouples electron transport from ATP generation. The selective 5-HT1F receptor agonists LY334370 (4-fluoro-N-[3-(1-methyl-4-piperidinyl)-1H-indol-5-yl]benzamide) and LY344864 (N-[(3R)-3-(dimethylamino)-2,3,4,9-tetrahydro-1H-carbazol-6-yl]-4-fluorobenzamide), and the nonselective 5-HT receptor agonist a-methyl 5-HT were purchased from Tocris (Ellisville, Mo.).
In-vitro mitochondrial biogenesis dose responses (reported as EC50 values) were determined from a modification of the assay described in Example 21. […] Compounds were incubated at different doses with renal cells for 24 h after which their basal respiration and elevated FCCP-induced uncoupled oxygen consumption rates (OCRs) were measured using a Seahorse Bioscience analyzer (Beeson et al., 2010). Uncoupled OCRs were normalized to vehicle control OCRs and the rates that decrease at high concentrations of drug were eliminated. The remaining dose-dependent responses were fit to a standard Hill equation using non-linear regression to obtain the EC50 values for replicates of N=4-6 where N is the number of individual rabbit renal cell isolations tested for each compound.

[3] = tested on: podocytes (1-1P4G5 podocyte clone); assay: Podocyte mitochondrial biogenesis (FCCP-uncoupled oxygen consumption rate); format: cell-based; conditions: Mus musculus; differentiated podocytes, FCCP 1 μM uncoupled rate normalized to vehicle, Hill fit
Experimental: Fully differentiated podocytes were assayed using increased mitochondrial reserve capacity (measured as FCCP-uncoupled oxygen consumption rate) as a measure of mitochondrial biogenesis.
For these studies the 1-1P4G5 podocyte clone developed in the Kopp lab at the NIH were used. (25) These cells expressed a SV40-driven temperature sensitive T antigen that enabled the cells to proliferate in an undifferentiated state at the permissive temperature of 33° C. and then after 5 days of culture at 37° C. the cells are fully differentiated as mature podocytes. The differentiated cells were maintained in Advanced RPMI 1640 with 10% fetal calf serum and then plated at 1.5 million cells/96-well Seahorse plate for 48 h prior to treatment with test compound, vehicle control (VC) or validated 5-HT1F agonists. The plates were then transferred to a Seahorse XF96 Instrument during which basal and FCCP-uncoupled rates were measured (the [FCCP]=1 μM). Drugs were treated at a range of 1 nM, 10 nM, 100 nM, 500 nM, and 1 μM and the uncoupled rates were normalized to vehicle control, <0.2% DMSO in media. The doses responses were fit to a Hill function and the EC50 values were calculated from the non-linear regression.

[4] = tested on: murine model of glomerular disease; assay: Nephrotoxic serum (NTS) induced chronic kidney disease model, albuminuria; format: in vivo, mouse; conditions: C57/BL mice, 2 mg/kg once per day, FIG. 1
Text: Renal dysfunction was modeled in mice using the nephrotoxic serum (NTS) induced model. The classical Adriamycin model for glomerular studies relies critically on dosing profiles, has resistance in some murine species, off-target effects in others, and required days (10 days) instead of hours for observable albuminuria (marker for renal compromise, determined by urine collection) compared to the NTS counterpart. (Mallipattu, S. K.; He, J. C. Am. J. Physiol. Renal Physiol. 2016, 311, F46-F51; Pippin, J. W.; Brinkkoetter, P. T.; Cormack-Aboud, F. C.; Durvasula, R. V.; Hauser, P. V.; Kowalewska, J.; Krofft, R. D.; Logar, C. M.; Marshall, C. B.; Ohse, T.; Shankland, S. J. Am. J. Physiol. Renal Physiol. 2009, 296, F213-F229). Conversely, the NTS model is quick onset (4 h) and has wide species reproducibility.
In this experiment, induction of the nephrotoxic serum (NTS) model ([…] injection) for glomerular decline was performed using C57/BL mice (15 mice total).
Urine albumin/creatinine ratios were measured in control (NTS+vehicle) and drug treated mice (NTS+drug (example 6) for pre-injection, day 2, day 6, day 12 and day 14. Drug was administered once per day at 2 mg/kg. Thus, it is expected that the compounds of the invention are useful to treat chronic kidney disease.

[5] = tested on: ischemia/reperfusion-induced AKI; conditions: following ischemia/reperfusion-induced AKI; cited from earlier work
[6] = tested on: murine renal cortex, heart, and liver; conditions: cited from earlier work

Structure (SMILES) | EC50 [2] | EC50 [3] | also measured
COc1cc(CC(C)N)c(OC)cc1I.Cl (stereo not shown) [DOT, 1-(2,5-dimethoxy-4-iodophenyl)-2-aminopropane hydrochloride] | – | – | recovery of mitochondrial function ([1]; renal proximal tubular cells, following oxidant injury): accelerated the recovery of mitochondrial function; induction of MB ([1]; renal proximal tubular cells): potent inducer of MB
COCCNC(=O)c1cnc2ccc(OC)cn2c1=O [Example 1, 7-methoxy-N-(2-methoxyethyl)-4-oxo-4H-pyrido[1,2-a]pyrimidine-3-carboxamide] | 0.02 nM | – | –
COCCNC(=O)c1cnc2ccc(NCCOC)cn2c1=O [Example 2, N-(2-methoxyethyl)-7-((2-methoxyethyl)amino)-4-oxo-4H-pyrido[1,2-a]pyrimidine-3-carboxamide] | 0.02 nM | – | –
COCCNC(=O)c1cnc(N)n(CCOC)c1=O [Example 3, 2-amino-N,1-bis(2-methoxyethyl)-6-oxo-1,6-dihydropyrimidine-5-carboxamide] | 20 nM | – | –
COCCNC(=O)c1cnc2c(OC)cc(OC)cc2c1O [Example 4, 4-hydroxy-6,8-dimethoxy-N-(2-methoxyethyl)quinoline-3-carboxamide] | 2 nM | 20 nM | –
COc1cc(OC)c2ncc(C(=O)N3CCN(C)CC3)c(O)c2c1 [Example 5, (4-hydroxy-6,8-dimethoxyquinolin-3-yl)(4-methylpiperazin-1-yl)methanone] | 1 nM | 100 nM | –
CN1CCN(C(=O)c2cccc(NC(=O)c3c(F)cc(F)cc3F)n2)CC1 [Example 6, 2,4,6-trifluoro-N-(6-(4-methylpiperazine-1-carbonyl)pyridin-2-yl)benzamide] | 2 nM | 100 nM | albuminuria (urine albumin/creatinine ratio) [4]: attenuated albuminuria
CN1CCCN(C(=O)c2cccc(NC(=O)c3c(F)cc(F)cc3F)n2)CC1 [Example 7, 2,4,6-trifluoro-N-(6-(4-methyl-1,4-diazepane-1-carbonyl)pyridin-2-yl)benzamide] | 0.2 nM | – | –
Cc1ccc(S(=O)(=O)Nc2cccc(C(=O)N3CCN(C)CC3)n2)cc1 [Example 8, 4-methyl-N-(6-(4-methylpiperazine-1-carbonyl)pyridin-2-yl)benzenesulfonamide] | 0.2 nM | – | –
CN1CCN(C(=O)c2cccc(NC(=O)N(C)C)n2)CC1 [Example 9, 1,1-dimethyl-3-(6-(4-methylpiperazine-1-carbonyl)pyridin-2-yl)urea] | 0.2 nM | – | –
CN1CCN(C(=O)c2cccc(Nc3nc4ccccc4[nH]3)n2)CC1 [Example 10, (6-((1H-benzo[d]imidazol-2-yl)amino)pyridin-2-yl)(4-methylpiperazin-1-yl)methanone] | 0.2 nM | – | –
CN1CCN(C(=O)c2cccc(NC(=O)c3ccccc3)n2)CC1 [Example 11, N-(6-(4-methylpiperazine-1-carbonyl)pyridin-2-yl)benzamide] | 2 nM | – | –
COCC(=O)N1CCc2ccc(Nc3nc4ccccc4o3)cc21 [Example 12, 1-(6-(benzo[d]oxazol-2-ylamino)indolin-1-yl)-2-methoxyethan-1-one] | 2 nM | – | –
COCC(=O)N1CCc2ccc(NC(=O)c3ccc(F)cc3F)cc21 [Example 13, 2,4-difluoro-N-(1-(2-methoxyacetyl)indolin-6-yl)benzamide] | 0.02 nM | – | –
COCC(=O)N1CCc2ccc(Nc3nc4ccccc4[nH]3)cc21 [Example 14, 1-(6-((1H-benzo[d]imidazol-2-yl)amino)indolin-1-yl)-2-methoxyethan-1-one] | 0.02 nM | – | –
COCC(=O)N1CCc2ccc(NC(=O)c3ccc(F)c(F)c3)cc21 [Example 15, 3,4-difluoro-N-(1-(2-methoxyacetyl)indolin-6-yl)benzamide] | 0.2 nM | – | –
COCC(=O)N1CCc2ccc(N(C)C(=O)c3c(F)cc(F)cc3F)cc21 [Example 16, 2,4,6-trifluoro-N-(1-(2-methoxyacetyl)indolin-6-yl)-N-methylbenzamide] | 0.002 nM | – | –
COCC(=O)N1CCc2ccc(NC(=O)c3cc(F)cc(F)c3)cc21 [Example 17, 3,5-difluoro-N-(1-(2-methoxyacetyl)indolin-6-yl)benzamide] | 0.02 nM | – | –
COCC(=O)N1CCc2ccc(N(S(=O)(=O)c3ccccc3)S(=O)(=O)c3ccccc3)cc21 [Example 19, N-(1-(2-methoxyacetyl)indolin-6-yl)-N-(phenylsulfonyl)benzenesulfonamide] | 2 nM | 20 nM | –
COCC(=O)N1CCc2ccc(NC(=O)c3cccc(Br)c3)cc21 [Example 20, 3-bromo-N-(1-(2-methoxyacetyl)indolin-6-yl)benzamide] | 0.02 nM | – | –
CN1CCC(C(=O)c2cccc(NC(=O)c3c(F)cc(F)cc3F)n2)CC1 [Example 24, 2,4,6-trifluoro-N-(6-(1-methylpiperidine-4-carbonyl)pyridin-2-yl)benzamide, reference compound] | 0.6 nM | 20 nM | –
CN(C)CC(=O)N1CCc2ccc(NS(=O)(=O)c3ccccc3)cc21 [Example 25, N-(1-(dimethylglycyl)indolin-6-yl)benzenesulfonamide] | – | 0.2 nM | –
CCN(CC)CC(=O)N1CCc2ccc(NC(=O)c3ccccc3)cc21 [Example 26, N-(1-(diethylglycyl)indolin-6-yl)benzamide] | – | 20 nM | –
O=C(Nc1ccc2c(c1)N(C(=O)CN1CCOCC1)CC2)c1ccccc1 [Example 27, N-(1-(2-morpholinoacetyl)indolin-6-yl)benzamide] | – | 20 nM | –
CN1CCC(c2c[nH]c3ccc(NC(=O)c4ccc(F)cc4)cc23)CC1 [LY334370, 4-fluoro-N-[3-(1-methyl-4-piperidinyl)-1H-indol-5-yl]benzamide] | – | – | maximal mitochondrial respiration [1]: increased; mitochondrial proteins (ATP synthase β, Cox1, NDUFB8) [1]: increased
CN(C)[C@@H]1CCc2[nH]c3ccc(NC(=O)c4ccc(F)cc4)cc3c2C1 [LY344864, N-[(3R)-3-(dimethylamino)-2,3,4,9-tetrahydro-1H-carbazol-6-yl]-4-fluorobenzamide] | – | – | maximal mitochondrial respiration [1]: increased; mitochondrial proteins (ATP synthase β, Cox1, NDUFB8) [1]: increased; recovery of renal function (BUN, KIM-1, mtDNA copy number) [5]: accelerated recovery of renal function; PGC-1α, Cox1 and NDUFB8 transcript levels and mtDNA copy number [6]: increased
